Experimental data as given in ChEMBL document CHEMBL2073910, “Molecular cloning and functional characterization of the mouse organic-anion-transporting polypeptide 1 (Oatp1) and mapping of the gene to chromosome X” (Biochem J, 2000).

T1: Solute carrier organic anion transporter family member 1A1 (Mus musculus, UniProt Q9QXZ6)
T1 sequence (Q9QXZ6 whole entry): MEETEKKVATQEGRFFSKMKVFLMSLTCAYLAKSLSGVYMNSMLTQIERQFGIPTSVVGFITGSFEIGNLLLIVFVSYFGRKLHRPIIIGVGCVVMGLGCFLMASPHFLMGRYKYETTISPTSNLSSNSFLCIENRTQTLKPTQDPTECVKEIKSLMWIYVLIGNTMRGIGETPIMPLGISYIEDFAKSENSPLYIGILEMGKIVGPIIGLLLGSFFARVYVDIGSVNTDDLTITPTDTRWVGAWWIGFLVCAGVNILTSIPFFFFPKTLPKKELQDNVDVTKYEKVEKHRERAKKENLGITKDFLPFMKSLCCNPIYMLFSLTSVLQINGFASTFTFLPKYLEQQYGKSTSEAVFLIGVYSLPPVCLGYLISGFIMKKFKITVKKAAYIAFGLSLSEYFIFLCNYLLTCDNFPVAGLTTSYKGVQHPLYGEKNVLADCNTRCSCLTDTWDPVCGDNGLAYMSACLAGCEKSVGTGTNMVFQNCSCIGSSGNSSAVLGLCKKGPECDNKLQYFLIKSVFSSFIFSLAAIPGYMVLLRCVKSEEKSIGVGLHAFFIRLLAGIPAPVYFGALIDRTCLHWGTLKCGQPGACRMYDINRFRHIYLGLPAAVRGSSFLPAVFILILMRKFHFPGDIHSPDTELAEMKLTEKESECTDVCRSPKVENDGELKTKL

B1: Solute carrier organic anion transporter family member 1A1 (Mus musculus) (protein)
chain: T1 sequence (Q9QXZ6 whole entry)

Legend:
[1] = molecular target: T1, Solute carrier organic anion transporter family member 1A1; assay: (§1) TP_TRANSPORTER: uptake in Xenopus laevis oocytes; format: functional, cell-based; conditions: oocyte
[2] = substrate: C[C@]12CC[C@@H]3c4ccc(OS(=O)(=O)O)cc4CC[C@H]3[C@@H]1CCC2=O; assay: as §1; format: functional, cell-based, Oocyte

Row | Molecule | Activity [1] | Km [2]
1 | C[C@@H]1O[C@@H](O[C@H]2C[C@@H](O)[C@]3(CO)[C@H]4[C@H](O)C[C@]5(C)[C@@H](C6=CC(=O)OC6)CC[C@]5(O)[C@@H]4CC[C@]3(O)C2)[C@H](O)[C@H](O)[C@H]1O [OUABAIN] | substrate [+] | –
2 | O=C1OC(c2ccc(O)c(S(=O)(=O)[O-])c2)(c2ccc(O)c(S(=O)(=O)[O-])c2)c2c(Br)c(Br)c(Br)c(Br)c21.[Na+].[Na+] [SULFOBROMOPHTHALEIN SODIUM] | substrate [+] | –
3 | GADOXETATE | substrate [+] | –
4 | B1 | – | 5 µM
